Experimental data from ChEMBL document CHEMBL1697731, “Cheminformatics analysis of assertions mined from literature that describe drug-induced liver injury in different species” (Chem Res Toxicol, 2010).

How the values were obtained:
Hepatotoxicity [1] = experiment: Literature-mined compound from Fourches et al multi-species drug-induced liver injury (DILI) dataset, effect in humans; conditions: human
Hepatotoxicity [2] = experiment: Literature-mined compound from Fourches et al multi-species drug-induced liver injury (DILI) dataset, effect in non-rodents
Hepatotoxicity [3] = experiment: Literature-mined compound from Fourches et al multi-species drug-induced liver injury (DILI) dataset, effect in rodents; conditions: rodentia

| Compound | Hepatotoxicity (Hepatotoxicity [1]) | Hepatotoxicity (Hepatotoxicity [2]) | Hepatotoxicity (Hepatotoxicity [3]) | Hepatotoxicity (Hepatotoxicity [1]; Liver) | Hepatotoxicity (Hepatotoxicity [2]; Liver) | Hepatotoxicity (Hepatotoxicity [3]; Liver) |
| --- | --- | --- | --- | --- | --- | --- |
| Oc1cc(Cl)ccc1Oc1ccc(Cl)cc1Cl [TRICLOSAN] | no drug-induced liver injury reported | no drug-induced liver injury reported | drug-induced liver injury reported |  |  |  |
| COc1c2occc2cc2ccc(=O)oc12 [METHOXSALEN] | drug-induced liver injury reported | no drug-induced liver injury reported | drug-induced liver injury reported |  |  |  |
| CO[C@]12C[C@@H](COC(=O)c3cncc(Br)c3)CN(C)[C@@H]1Cc1cn(C)c3cccc2c13 [NICERGOLINE] | no drug-induced liver injury reported | no drug-induced liver injury reported | drug-induced liver injury reported |  |  |  |
| COc1nc(C)nc(Cl)c1N=C1NCCN1 [MOXONIDINE] | no drug-induced liver injury reported | no drug-induced liver injury reported | drug-induced liver injury reported |  |  |  |
| Nc1ncnc2c1ncn2[C@@H]1O[C@H](CO)[C@@H](O)[C@@H]1O [VIDARABINE] | drug-induced liver injury reported | no drug-induced liver injury reported | drug-induced liver injury reported |  |  |  |
| C#C[C@]1(O)CC[C@H]2[C@@H]3CCC4=CCCC[C@@H]4[C@H]3C(=C)C[C@@]21CC [DESOGESTREL] | drug-induced liver injury reported | no drug-induced liver injury reported | no drug-induced liver injury reported |  |  |  |
| CC(C)C(Br)C(=O)NC(N)=O (configuration not stated) [BROMISOVALUM] | drug-induced liver injury reported | no drug-induced liver injury reported | drug-induced liver injury reported |  |  |  |
| COc1cc(/C=C/C(=O)CC(=O)/C=C/c2ccc(O)c(OC)c2)ccc1O [CURCUMIN] | drug-induced liver injury reported | no drug-induced liver injury reported | drug-induced liver injury reported |  |  |  |
| CCN1CC(CCN2CCOCC2)C(c2ccccc2)(c2ccccc2)C1=O.Cl (configuration not stated) | drug-induced liver injury reported | no drug-induced liver injury reported | no drug-induced liver injury reported |  |  |  |
| CC1(C)C(/C=C/C=C/C=C/C=C2/N(CCCCS(=O)(=O)[O-])c3ccc4ccccc4c3C2(C)C)=[N+](CCCCS(=O)(=O)[O-])c2ccc3ccccc3c21.[Na+] [INDOCYANINE GREEN] | no drug-induced liver injury reported | no drug-induced liver injury reported | drug-induced liver injury reported |  |  |  |
| CCCCC1=NC2(CCCC2)C(=O)N1Cc1ccc(-c2ccccc2-c2nnn[nH]2)cc1 [IRBESARTAN] | drug-induced liver injury reported | no drug-induced liver injury reported | drug-induced liver injury reported |  |  |  |
| Cn1cnc([N+](=O)[O-])c1Sc1ncnc2nc[nH]c12 [AZATHIOPRINE] |  |  |  | drug-induced liver injury reported | no drug-induced liver injury reported | drug-induced liver injury reported |
| GLATIRAMER ACETATE | drug-induced liver injury reported | no drug-induced liver injury reported | drug-induced liver injury reported |  |  |  |
| CCN[C@@H](C)Cc1cccc(C(F)(F)F)c1 [DEXFENFLURAMINE] | drug-induced liver injury reported | no drug-induced liver injury reported | drug-induced liver injury reported |  |  |  |
| O=C(O)CSCC(=O)NC1CCSC1=O (configuration not stated) [ERDOSTEINE] | no drug-induced liver injury reported | no drug-induced liver injury reported | drug-induced liver injury reported |  |  |  |
| Nc1ccn([C@H]2CC[C@@H](CO)O2)c(=O)n1 [ZALCITABINE] |  |  |  | drug-induced liver injury reported | no drug-induced liver injury reported | drug-induced liver injury reported |
| CNC(=O)Oc1cccc2ccccc12 [CARBARIL] | no drug-induced liver injury reported | no drug-induced liver injury reported | drug-induced liver injury reported |  |  |  |
| OC(CNc1ccccn1)c1ccccc1 (configuration not stated) [PHENYRAMIDOL] | drug-induced liver injury reported | no drug-induced liver injury reported | no drug-induced liver injury reported |  |  |  |
| CS(=O)(=O)OCCCCOS(C)(=O)=O [BUSULFAN] | drug-induced liver injury reported | no drug-induced liver injury reported | drug-induced liver injury reported |  |  |  |
| PORFIMER SODIUM | no drug-induced liver injury reported | no drug-induced liver injury reported | drug-induced liver injury reported |  |  |  |
| O=C(O)c1cc(/N=N/c2ccc(S(=O)(=O)Nc3ccccn3)cc2)ccc1O [SULFASALAZINE] | drug-induced liver injury reported | no drug-induced liver injury reported | drug-induced liver injury reported |  |  |  |
| CCCCNC(=O)NS(=O)(=O)c1ccc(N)cc1 [CARBUTAMIDE] | no drug-induced liver injury reported | no drug-induced liver injury reported | drug-induced liver injury reported |  |  |  |
| GENTAMICIN | no drug-induced liver injury reported | no drug-induced liver injury reported | drug-induced liver injury reported |  |  |  |
| FC(F)(F)C(Cl)Br (configuration not stated) [HALOTHANE] | drug-induced liver injury reported | drug-induced liver injury reported | drug-induced liver injury reported |  |  |  |
| CC(C)(C)c1ccc(C(O)CCCN2CCC(C(O)(c3ccccc3)c3ccccc3)CC2)cc1 (configuration not stated) [TERFENADINE] | drug-induced liver injury reported | no drug-induced liver injury reported | no drug-induced liver injury reported |  |  |  |
| COc1cc2c(Nc3ccc(Br)cc3F)ncnc2cc1OCC1CCN(C)CC1 [VANDETANIB] | drug-induced liver injury reported | no drug-induced liver injury reported | no drug-induced liver injury reported |  |  |  |
| CN1C(=O)CC(=O)N(c2ccccc2)c2cc(Cl)ccc21 [CLOBAZAM] | drug-induced liver injury reported | no drug-induced liver injury reported | no drug-induced liver injury reported |  |  |  |
| CCCCOCCOCCOCc1cc2c(cc1CCC)OCO2 [PIPERONYL BUTOXIDE] |  |  |  | no drug-induced liver injury reported | no drug-induced liver injury reported | drug-induced liver injury reported |
| COCc1c(C(C)C)nc(C(C)C)c(/C=C/[C@@H](O)C[C@@H](O)CC(=O)O)c1-c1ccc(F)cc1 [CERIVASTATIN] | drug-induced liver injury reported | drug-induced liver injury reported | drug-induced liver injury reported |  |  |  |
